We go through 15 compounds from US9359371B2, “Bicyclic substituted pyrimidine compounds” (Xuanzhu Pharma Co., Ltd., priority 2012, dated 2016).

Each structure is given as a SMILES string. pIC50: −log10 of the molar value. Where two headings read alike, the source gives them in different places.

One data set deals with PDE-11 (Homo sapiens (Human), UniProt Q9HCR9). Put plainly: Caliper Mobility-Shift PDE-11 Assay. The data set is classed as biochemical. The settings on record: Table 4; maximum final concentration 10 μM. On the procedure: Experiment 4: Measurement of Pharmacological Activity on PDE-11 Enzyme In Vitro
Sequence of PDE-11 (Q9HCR9 whole entry): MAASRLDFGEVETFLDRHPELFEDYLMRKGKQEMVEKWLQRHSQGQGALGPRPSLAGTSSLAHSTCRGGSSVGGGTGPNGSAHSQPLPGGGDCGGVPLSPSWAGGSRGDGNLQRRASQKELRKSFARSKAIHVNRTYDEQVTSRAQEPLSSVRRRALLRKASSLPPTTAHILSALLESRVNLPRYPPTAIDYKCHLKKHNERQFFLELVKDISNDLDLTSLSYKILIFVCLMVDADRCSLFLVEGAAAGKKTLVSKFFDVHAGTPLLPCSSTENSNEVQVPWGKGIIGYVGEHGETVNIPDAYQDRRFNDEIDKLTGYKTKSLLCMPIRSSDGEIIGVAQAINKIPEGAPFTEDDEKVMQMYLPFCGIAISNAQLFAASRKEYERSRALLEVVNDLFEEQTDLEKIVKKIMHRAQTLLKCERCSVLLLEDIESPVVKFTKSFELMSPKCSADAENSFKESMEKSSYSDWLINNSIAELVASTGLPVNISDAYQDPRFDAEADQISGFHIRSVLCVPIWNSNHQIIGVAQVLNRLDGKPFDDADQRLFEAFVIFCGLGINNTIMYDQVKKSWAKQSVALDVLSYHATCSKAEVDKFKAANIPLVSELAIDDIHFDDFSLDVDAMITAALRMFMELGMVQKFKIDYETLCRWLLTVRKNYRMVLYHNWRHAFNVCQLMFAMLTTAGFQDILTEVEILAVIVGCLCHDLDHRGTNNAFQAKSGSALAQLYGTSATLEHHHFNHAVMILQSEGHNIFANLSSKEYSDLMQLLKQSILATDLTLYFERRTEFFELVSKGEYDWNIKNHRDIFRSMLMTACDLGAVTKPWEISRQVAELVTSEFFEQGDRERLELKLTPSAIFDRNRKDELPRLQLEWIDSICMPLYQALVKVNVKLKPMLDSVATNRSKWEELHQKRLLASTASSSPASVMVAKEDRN
Method: enzyme assay, Caliper Mobility-Shift PDE-11 Assay
The test compound was accurately weighed, dissolved in DMSO, mixed thoroughly and formulated into 10 mM. The above stock solution was diluted to a concentration of 0.5 mM with DMSO, and then was gradiently diluted by a dilution factor of 3.162, resulting in 11 concentrations in total.
To a 96-well plate, 20 μL of 10 μM FL-cGMP as the substrate was added; then 1 μL solution of the compound in DMSO or DMSO solution without compound was added; and then 29 μL of 0.28 ng/μL PDE-11 enzyme buffer (100 mM Hepes pH 7.5, 5 mM MgCl2, 0.002% Brij-35) was added. The maximum final concentration of the compound was 10 μM. The plate was incubated at 30° C. for 1 h, and 20 μL of 70 μM EDTA was then added to stop the reaction. 26 μL of solution of each well was transferred to a 384-well plate. The conversion was read on a EZ reader II. The Inhibition rate was calculated by the formula below, and used to calculate IC50 by Prism 5.0 Inhibition rate=[Conversion (ZPE)−Conversion (sample)]×100/[Conversion (ZPE)−Conversion (HPE)]
Note: HPE: control without enzyme; ZPE: control without compound

Another data set has as its target PDE-5A enzyme (Homo sapiens (Human), UniProt O76074). Put plainly: Caliper Mobility-Shift PDE-5A Assay. To be noted: Table 1; Avanafil value is the control. It counts as biochemical. On the procedure:
Experiment 1: Measurement of Enzymatic Activity In Vitro
PDE-5A enzyme: humanized PDE-5 enzyme, SignalChem, Cat#93-31G-20.
Method: enzyme assay, Caliper Mobility-Shift PDE-5A Assay:
The test compound was accurately weighed, dissolved in DMSO, mixed thoroughly and formulated into 10 mM.
The maximum final concentration of the compound was 10 μM. The plate was incubated at 30° C. for 1 h, and 20 μL of 70 μM EDTA was then added to stop the reaction. 26 μL of solution of each well was transferred to a 384-well plate. The conversion was read on a EZ reader II. The inhibition rate was calculated by the formula below, and used to calculate IC50 by Prism 5.0 Inhibition rate=[Conversion (ZPE)−Conversion (sample)]×100/[Conversion (ZPE)−Conversion (HPE)]
Note: HPE: control without enzyme; ZPE: control without a test compound

Data set [1] deals with PDE-5 enzyme (human blood platelets) (Homo sapiens (Human), UniProt O76074). Put plainly: PDE-5 enzyme assay, [3H]cGMP. The data set is classed as biochemical. To be noted: Table 2; human blood platelet enzyme; read-out: IC50 on PDE-5.
Data set [2] in a line: Pharmacokinetics (PK) in SD rats. The data set is classed as in vivo. The settings on record: rat; for AUC(0-inf) / Cmax / half-life / bioavailability / Tmax: SD, plasma; for bioavailability: read-out: F % (absolute bioavailability). On the procedure: Experiment 9: Assay of Pharmacokinetics (PK) of the Compounds of the Present Invention in SD Rats
Compound 1-54 of the present invention were prepared by the methods described in Example 1 to Example 54 of the present invention.
The control drug Avanafil, of which the structure was stated above, was purchased commercially.
Collection of the rat's blood: The animal was fixed. The tail was warmed with a water bath 10 min before the collection time. About 200 μL of whole blood was collected from the tail vein. The collected blood was collected into anticoagulant tubes containing heparin sodium. The blood samples were centrifuged at 4° C. by 8000 rpm for 6 min to give the plasma samples, which should be prepared within 30 min after the collection of blood. The plasma samples were stored in a freezer of −80° C. until test.
The result output by Analyst 1.5.1 of AB Company was used as the concentration of the tested sample (plasma sample). The mean value, standard deviation, variable coefficient and the like were calculated by Microsoft Excel (except for the result directly output by Analyst 1.5.1). Parameters of PK were calculated by Pharsight Phoenix 6.2 software. Formula for calculating oral bioavailability: F %=AUCinf−po*Doseiv/AUCinf−iv*Dosepo.

The mark [3] stands for this setting: po, intragastric administration, 1 mg/kg.
[4] abbreviates: po, intragastric administration, 2 mg/kg.

In general, pIC50 refers to the IC50 on a negative log10 scale, so that one unit is a factor of ten. On to `COc1ccc(CNc2nc(N3CC4CC4C3)ncc2C(=O)NCc2ncccn2)cc1Cl` (stereo not drawn) [Compound 1, 2-(3-azabicyclo[3.1.0]hexan-3-yl)-4-((3-chloro-4-methoxybenzyl)amino)-N-(pyrimidin-2-ylmethyl)pyrimidine-5-formamide], for which the pIC50 on PDE-11 is less than 5.00; on PDE-5A enzyme it was 8.22; in data set [1], 8.22.

In the case of `COc1ccc(CNc2nc(N3CC4CC4C3)ncc2C(=O)NCc2cnc(C)cn2)cc1Cl` (stereo not drawn) [Compound 4, 2-(3-azabicyclo[3.1.0]hexan-3-yl)-4-((3-chloro-4-methoxybenzyl)amino)-N-((5-methylpyrazine-2-yl)methyl)pyrimidine-5-formamide], the values for the pIC50 at PDE-11 and at PDE-5A enzyme were less than 5.00 and 8.33, respectively.

As to `COc1ccc(CNc2nc(N3CC4CC4C3)ncc2C(=O)NCc2ccc(F)cc2)cc1Cl` (stereo not drawn) [Compound 5, 2-(3-azabicyclo[3.1.0]hexan-3-yl)-4-((3-chloro-4-methoxybenzyl)amino)-N-(4-fluorobenzyl)pyrimidine-5-formamide], the results for the negative-log IC50 (pIC50) on PDE-11 and on PDE-5A enzyme were less than 5.00 and 7.76, respectively.

Consider `COc1ccc(CNc2nc(N3CC4CC4C3)ncc2C(=O)NCCN2CCOCC2)cc1Cl` (stereo not drawn) [Compound 6, 2-(3-azabicyclo[3.1.0]hexan-3-yl)-4-((3-chloro-4-methoxybenzyl)amino)-N-(2-morpholinylethyl)pyrimidine-5-formamide], for which the pIC50 at PDE-11 was less than 5.00; at PDE-5A enzyme, 8.37.

With `COc1ccc(CNc2nc(N3CC4CC4C3)ncc2C(=O)NCC2CCNCC2)cc1Cl` (stereo not drawn) [Compound 7, 2-(3-azabicyclo[3.1.0]hexan-3-yl)-4-((3-chloro-4-methoxybenzyl)amino)-N-(piperdin-4-ylmethyl)pyrimidine-5-formamide], at PDE-11, the negative-log IC50 (pIC50) was less than 5.00.

Turning to `COc1ccc(CNc2nc(N3CC4CC4C3)ncc2C(=O)N[C@H]2CCCCNC2=O)cc1Cl` (stereo partly drawn) [Compound 8, 2-(3-azabicyclo[3.1.0]hexan-3-yl)-4-((3-chloro-4-methoxybenzyl)amino)-N-((s)-caprolactam-3-yl)pyrimidine-5-formamide], the figures for the pIC50 on PDE-11 and on PDE-5A enzyme were less than 5.00 and 7.88, respectively.

`COc1ccc(CNc2nc(N3CC4CC4C3)ncc2C(=O)NC2CCCCCC2)cc1Cl` (stereo not drawn) [Compound 9, 2-(3-azabicyclo[3.1.0]hexan-3-yl)-4-((3-chloro-4-methoxybenzyl)amino)-N-cycloheptanylpyrimidine-5-formamide]: the pIC50 at PDE-11 was less than 5.00; on PDE-5A enzyme, 7.63.

The term AUC(0-inf) denotes total exposure, with the tail of the curve extrapolated. Higher therefore signals high exposure. As a reminder, the Cmax is the peak of the concentration-time curve. In general, half-life refers to the time in which the quantity being followed falls by half. Low readings indicate rapid decline, high ones slow decline. As usually defined, the bioavailability is the share of a dose that reaches the circulation, judged against a reference dose that is usually intravenous. For the compound `COc1ccc(CNc2nc(N3CCC4(CCC4)CC3)ncc2C(=O)NCc2ncccn2)cc1Cl` [Compound 14, 4-((3-chloro-4-methoxybenzyl)amino)-N-(pyrimidin-2-ylmethyl)-2-(7-azaspiro[3.5]nonan-7-yl)pyrimidine-5-formamide], the pIC50 at PDE-11 was less than 5.00. For the same compound, in data set [2] (setting [3]), the AUC(0-inf) is 36 ng·h/mL, the Cmax stood at 5.2 ng/mL, the half-life is 2.85 h and the bioavailability was determined as 15%. In data set [2] (intravenous injection, 1 mg/kg), the total exposure AUC(0-inf) is 237 ng·h/mL, the half-life is 1.47 h, the Cl_obs came out at 71 mL/min/kg and the Vss_obs is recorded as 8.73 L/kg.

As to `COc1ccc(CNc2nc(N3CCC4(CCN(C)C4)C3)ncc2C(=O)NCc2ncccn2)cc1Cl` (stereo not drawn) [Compound 18, 4-((3-chloro-4-methoxybenzyl)amino)-2-(7-methyl-2,7-diazaspiro[4.4]nonan-2-yl)-N-(pyrimidin-2-ylmethyl)pyrimidine-5-formamide], the pIC50 on PDE-11 was less than 5.00.

The term Tmax denotes the time at which the peak concentration occurs. Turning to `COc1ccc(CNc2nc(N3CC4CC4C3CO)ncc2C(=O)NCc2ccccc2)cc1Cl` (stereo not drawn) [Compound 32, N-benzyl-4-((3-chloro-4-methoxybenzyl)amino)-2-(2-(hydroxymethyl)-3-azabicyclo[3.1.0]hexan-3-yl)pyrimidine-5-formamide], in data set [2] (setting [4]), the AUC(0-inf) was determined as 24 ng·h/mL, the Cmax is 6.5 ng/mL, the Tmax is 0.5 h and the half-life is 2.26 h. Further, in data set [2] (setting [4]), the bioavailability amounted to 3.5%. Further, in data set [2] (intravenous injection, 1 mg/kg), the AUC(0-inf) came out at 212 ng·h/mL, the half-life is 1.68 h, the Cl_obs came out at 80.2 mL/min/kg and the Vss_obs is recorded as 12.05 L/kg. In addition, on PDE-5A enzyme, the pIC50 was 8.33.

As to `COc1ccc(CNc2nc(N3CCC4(CC4)C3)ncc2C(=O)NCc2ccccn2)cc1Cl` [Compound 40, 4-((3-chloro-4-methoxybenzyl)amino)-N-(pyridin-2-ylmethyl)-2-(5-azaspiro[2.4]heptan-5-yl)pyrimidine-5-formamide], in data set [2] (setting [4]), the AUC(0-inf) worked out at 57 ng·h/mL, the concentration peaked (Cmax) at 13.9 ng/mL, the time to peak (Tmax) was 0.5 h and the half-life was 3.58 h. Also, the bioavailability in data set [2] (setting [4]) was determined as 9.5%. In data set [2] (intravenous injection, 1 mg/kg), this compound had an area under the curve AUC(0-inf) of 205 ng·h/mL, a half-life of 2.73 h, a Cl_obs of 81.3 mL/min/kg and a Vss_obs of 16.40 L/kg. In addition, the pIC50 at PDE-5A enzyme is 7.93.

Consider `COc1ccc(CNc2nc(N3CCC4(CC4)C3)ncc2C(=O)NCc2ncccn2)cc1Cl` [Compound 41, 4-((3-chloro-4-methoxybenzyl)amino)-N-(pyrimidin-2-ylmethyl)-2-(5-azaspiro[2.4]heptan-5-yl)pyrimidine-5-formamide], for which, in data set [2] (setting [4]), the AUC(0-inf) worked out at 67 ng·h/mL, the Cmax was determined as 43.8 ng/mL, the Tmax is 0.5 h and the half-life was 0.91 h. In data set [2] (setting [4]), the bioavailability is 17.7%. In data set [2] (intravenous injection, 1 mg/kg), this compound gave a total exposure AUC(0-inf) of 188 ng·h/mL, a half-life of 0.83 h, a Cl_obs of 89.2 mL/min/kg and a Vss_obs of 6.62 L/kg. In addition, the negative-log IC50 (pIC50) on PDE-5A enzyme was 7.64.

Take `COc1ccc(CNc2nc(N3CCC4(CC4)C3)ncc2C(=O)NCCN2CCNCC2)cc1Cl` [Compound 42, 4-((3-chloro-4-methoxybenzyl)amino)-N-(2-(piperazin-1-yl)ethyl)-2-(5-azaspiro[2.4]heptan-5-yl)pyrimidine-5-formamide]: at PDE-11, the pIC50 is less than 5.00.

For the compound `COc1ccc(CNc2nc(N3CCC4(CC4)C3)ncc2C(=O)N[C@H]2CC[C@H](N)CC2)cc1Cl` [Compound 44, N-(trans-4-aminocyclohexyl)-4-(3-chloro-4-methoxybenzylamino)-2-(5-azaspiro[2.4]heptan-5-yl)pyrimidine-5-formamide], at PDE-11, the pIC50 is less than 5.00.

`COc1ccc(CNc2nc(N3CCC4(CC4)C3)ncc2C(=O)NCC2CCC(O)CC2)cc1Cl` (stereo not drawn) [Compound 47, 4-((3-chloro-4-methoxybenzyl)amino)-N-(4-hydroxycyclohexyl)methyl-2-(5-azaspiro[2.4]heptan-5-yl)pyrimidine-5-formamide]: the pIC50 on PDE-11 is less than 5.00.
